# Test results as given in patent US20140094465A1, “Compounds as S-Nitrosoglutathione Reductase Inhibitors” (N30 PHARMACEUTICALS, INC., priority 2011, published 2014).
# What was measured:
# [1] = Mouse pharmacokinetic (PK) study; assay type: in vivo; settings: male, BALB/c, plasma, po, 10 mg/kg, male BALB/c mice, 2 mg/kg IV, 10 mg/kg PO, read-out: oral bioavailability (% F)
# Source text: The mouse was used to determine the pharmacokinetics of compounds of the invention. This species is widely used to assess the bioavailability of compounds by administering both oral (PO) and intravenous (IV) test articles. Efficacy of the compounds of the invention was compared by assessing plasma exposure in male BALB/c mice either via IV or PO administration at the times of peak activity.
# Compounds of the invention were reconstituted in a phosphate buffered saline (PBS)/10% Solutol (HS 15) clear solution resulting in a concentration of 0.2 mg/mL and administered to mice (2 mg/kg) as a single IV dose. Animals were dosed via the lateral tail vein. Blood samples were collected at designated time points (0.083, 0.25, 0.5, 1, 2, 4, 8, 16, 24 hours) by cardiac puncture under isoflurane anesthesia (up to 1 mL blood per animal). The blood was collected into tubes containing Li-Heparin. The blood samples were kept on ice until centrifugation within approximately 30 minutes of collection. The plasma was transferred into labeled polypropylene tubes and frozen at −70° C. until analyzed by LC/MS/MS.
# The compounds of the invention were reconstituted in 40% Propylene Glycol/40% Propylene Carbonate/20% of a 5% Sucrose clear solution resulting in a concentration of 2 mg/mL and administered to mice (10 mg/kg) as a single oral dose via gavage. Blood samples were collected at 0.25, 0.5, 1, 2, 4, 8, 12, 16, 20 and 24 hours post dose by cardiac puncture under isoflurane anesthesia. The blood was collected in tubes containing Li-Heparin. The blood samples were kept on ice until centrifugation within approximately 30 minutes of collection. The plasma was transferred into labeled polypropylene tubes and frozen at −70° C. until analyzed by LC/MS/MS.
# Plasma samples at each timepoint were analyzed using a LC-MS/MS with a lower limit of quantification (LLOQ) of 1 ng/mL. Plasma was analyzed to determine the amount of the compound of the invention in each sample and regression curves generated for each compounds of the invention in the relevant matrixes.
# WinNonlin analysis was used for calculating PK parameters for both the IV and PO administrations:
# PK parameters for IV portion—AUClast; AUCINF; T1/2; Cl; Vss; Cmax; MRT
# PK parameters for PO portion—AUClast; AUCINF; T1/2; Cmax; Cl, MRT.
# In addition to the above PK parameters, bioavailability (% F) was calculated.
# [2] = target: T1, S-nitrosoglutathione reductase (GSNOR) (Homo sapiens, UniProt P11766); assay: GSNOR assay (inhibition of GSNOR activity, NADH absorbance at 340 nm); assay type: biochemical; settings: GSNOR inhibitor activity, Tables 1-6; read-out: IC50 range
# T1 construct: made in house; host or cells: E. coli
# Summary of the method: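 Recombinant GSNOR purified from E. coli, tag removed. Final conditions: 100 mM NaPO4 pH 7.4, 0.240 mM GSNO, 0.300 mM NADH, 0.5 μg/mL enzyme, 1% DMSO; NADH loss followed as 340 nm absorbance change over 3 min at 25 °C. Compounds 100–0.003 μM, triplicate; IC50 by curve analysis.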
# [3] = tested on: cigarette smoke-induced COPD; assay: Acute (4 day) cigarette smoke exposure COPD model; assay type: in vivo, mouse; settings: acute 4 day smoke model
# Description: The efficacy of GSNOR inhibitors was assessed in a mouse model of chronic obstructive pulmonary disease (COPD) induced by short duration (4 days or 11 days) of exposure to cigarette smoke. Infiltration of inflammatory cells into the bronchoalveolar lavage fluid (BALF) and BALF levels of chemokines involved in inflammation and tissue turnover/repair were measured to assess the influences of GSNOR inhibitors on some of the early events associated with the initiation and progression of COPD.
# Efficacy of GSNOR inhibitors against COPD was explored using acute (4 day) and subchronic (11 day) models of cigarette smoke-induced COPD in mice. […] In animal models, changes in lung pathology are only evident after extended (several months) duration of exposure to cigarette smoke, thus making chronic models prohibitive as effective screening tools. More recently, models exploring inflammatory responses after short duration (2 weeks or less) of smoke exposure in mice have been utilized as tools for screening efficacy and mechanisms of action of novel therapeutics against COPD. The key roles of inflammation in the initiation and progression of COPD, make these short duration models relevant for initial tests of efficacy of novel therapeutics.
# Female C57Bl/6 mice (N=8 per group) were exposed to cigarette smoke using a whole body exposure chamber. Mice were exposed daily for 4 consecutive days to 4 cycles of smoke from 6 sequential cigarettes (Kentucky 3R4F without filter) with a 30 minute smoke free interval between cycles. GSNOR inhibitors were administered daily via oral dosing at 10 mg/kg/day for 7 days starting 2 days prior to smoke exposure and continuing 1 day post-exposure. The effects of GSNOR inhibitors were assessed by quantitating the numbers of total cells, leukocytes, and leukocytes differentials in the BALF via light microscopy and the levels of BALF chemokines via ELISA at approximately 24 h after the last smoke exposure. The effect of GSNOR inhibitors were compared to vehicle treated controls. The PDE4 inhibitor, roflumilast, was used as the positive control for the study. A group of naïve mice (N=8) was exposed to air and used as a negative control for the study.
# [4] = tested on: dextran sodium sulfate (DSS)-induced IBD; assay: Acute prophylactic model of DSS-induced IBD; assay type: in vivo, mouse
# Source text: (§1) Acute and chronic models of dextran sodium sulfate (DSS)-induced IBD in mice were used to explore efficacy of GSNORi against this disease. Acute and chronic DSS-induced IBD are widely used and well characterized models that induce pathological changes in the colon similar to those observed in the human disease. In these models and in human disease, epithelial cells within the crypts of the colon are disrupted, leading to dysfunction of the epithelial barrier and the ensuing tissue inflammation, edema, and ulceration. GSNORi therapy may benefit IBD by restoring s-nitrosoglutathione (GSNO) levels, and thus prevent or reverse the epithelial barrier dysfunction. Experimental IBD was induced by administration of DSS in the drinking water of male C57Bl/6 mice (N=8 to 10 mice per group) for 6 consecutive days. GSNORi was dosed orally at doses of 0.1 to 10 mg/kg/day for 10 days starting two days prior to and continuing two days post DSS exposure. […] Levels of circulating cytokines involved in inflammatory pathways were also assessed. The effect of GSNORi was compared to vehicle treated controls. […] Naïve mice (N=5) were also assessed as a normal tissue control.
# [5] = tested on: dextran sodium sulfate (DSS)-induced IBD; assay: Chronic treatment model of DSS-induced IBD; assay type: in vivo, mouse; settings: oral 10 mg/kg/day for up to 14 days, treatment regimen
# Source text: as §1, with “mice (N=10” for “mice (N=8”, “to 12” for “to 10”, “of” for “of 0.1 to”, “for 14” for “for 10”, “starting one day after cessation of” for “starting two days prior to and continuing two days post”
# [6] = tested on: cigarette smoke-induced COPD; assay: Subchronic (11 day) cigarette smoke exposure COPD model; assay type: in vivo, mouse; settings: subchronic 11 day model; for effects compared with roflumilast: roflumilast 5 mg/kg/day
# Description: Infiltration of inflammatory cells into the bronchoalveolar lavage fluid (BALF) and BALF levels of chemokines involved in inflammation and tissue turnover/repair were measured to assess the influences of GSNOR inhibitors on some of the early events associated with the initiation and progression of COPD. […] In animal models, changes in lung pathology are only evident after extended (several months) duration of exposure to cigarette smoke, thus making chronic models prohibitive as effective screening tools. […] The key roles of inflammation in the initiation and progression of COPD, make these short duration models relevant for initial tests of efficacy of novel therapeutics. Female C57Bl/6 mice (N=10 per group) were exposed to cigarette smoke generated from Marlboro 100 cigarettes without filters. Exposure times were 25 min. on study day 1, 35 min. on study day 2, and 45 min. on study days 3 to 11. GSNOR inhibitors were administered one hour prior to smoke exposure on each day. GSNOR inhibitors were dosed orally at 1 to 10 mg/kg/day for 11 days. […] The effect of GSNOR inhibitors were compared to vehicle treated controls and expressed as percent inhibition of the cigarette smoke induced increases in BALF cell numbers. Roflumilast was used as the positive control for the study and was dosed at 5 mg/kg/day. A group of naïve mice (N=10) was exposed to air and dosed with vehicle as a negative control for the study.
# [7] = oral 1 mg/kg/day for 10 days, prophylactic
# T1 sequence (P11766 whole entry): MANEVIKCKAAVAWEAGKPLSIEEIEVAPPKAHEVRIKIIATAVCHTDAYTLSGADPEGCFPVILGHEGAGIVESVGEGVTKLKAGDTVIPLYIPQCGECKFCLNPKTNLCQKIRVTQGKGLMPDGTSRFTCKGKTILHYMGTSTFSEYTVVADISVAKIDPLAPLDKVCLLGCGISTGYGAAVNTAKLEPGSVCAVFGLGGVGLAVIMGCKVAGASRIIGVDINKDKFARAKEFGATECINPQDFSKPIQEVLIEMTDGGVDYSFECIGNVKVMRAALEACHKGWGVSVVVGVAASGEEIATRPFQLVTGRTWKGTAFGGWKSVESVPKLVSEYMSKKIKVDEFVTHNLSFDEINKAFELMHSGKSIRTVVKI
bioavailability [1] [%],IC50 [2] [nM],Structure (SMILES),decrease of percent of mice with severe colon injury scores via endoscopy [5],decrease of percent of mice with severe colon injury scores via histopathology [5],effects compared with roflumilast [6],other results
> 9,< 100,O=C(O)c1ccc(-c2nc3ccc(O)cc3cc2Cl)cc1 [Compound I-19],,,,
> 9,< 100,O=C(O)c1ccc(-c2nc3ccc(O)cc3cc2Cl)c(F)c1 [Compound I-28],,,,
,< 100,O=C(O)c1ccc(-c2ccc3cc(O)ccc3n2)c(F)c1 [Compound I-13],52 % of vehicle control,53 % of vehicle control,comparable to those of roflumilast,inhibition of smoke-induced increase in lymphocytes in BAL ([6]; oral 1 mg/kg/day for 11 days): 60%; inhibition of smoke-induced increase in macrophages in BAL ([6]; oral 1 mg/kg/day for 11 days): 53%; inhibition of smoke-induced increase in neutrophils in BAL ([6]; oral 1 mg/kg/day for 11 days): 67%; inhibition of smoke-induced increase in total cells in BAL ([6]; oral 1 mg/kg/day for 11 days): 56%

# The next lines start with the compound.
Structure (SMILES),bioavailability [1] [%],IC50 [2] [nM],decrease of percent of mice with severe colon injury scores via endoscopy [5],decrease of percent of mice with severe colon injury scores via histopathology [5],effects compared with roflumilast [6],other results
Oc1ccc2nc(-c3ccc(-c4nnn[nH]4)cc3)ccc2c1 [Compound I-4],> 9,< 100,,,,
O=C(O)c1ccc(-c2ccc3cc(O)ccc3n2)cc1 [Compound I-3],,< 100,,,,"effects compared with roflumilast [3]: comparable to or greater than those observed for roflumilast; BALF chemokines ([3]; oral 10 mg/kg/day for 7 days): restored BALF chemokines towards levels observed in naïve mice; circulating inflammatory cytokines ([4]; oral 0.1, 1, or 10 mg/kg/day for 10 days): restored circulating inflammatory cytokines towards levels observed in untreated naïve mice; effects compared with prednisolone ([4]; prednisolone 3 mg/kg/day oral): comparable to or greater than those observed for prednisolone"
O=C(O)c1ccc(-c2ccc3cc(O)ccc3c2)c(Cl)c1 [III-1],,< 100,50 % of vehicle control,17 % of vehicle control,comparable to those of roflumilast,"decrease of percent of mice with severe colon injury scores via endoscopy [4, 7]: 17 % of vehicle control; decrease of percent of mice with severe colon injury scores via histopathology [4, 7]: 21 % of vehicle control"
